Six molecules from ChEMBL document CHEMBL5500372, “Novel natural osthole-inspired amphiphiles as membrane targeting antibacterials against methicillin-resistant Staphylococcus aureus (MRSA)” (Eur J Med Chem, 2024) can be followed below.

As a reminder, the MIC is the lowest concentration found to suppress growth. A lower MIC goes with greater potency. As usually defined, the HC50 is the concentration that lyses half of the red blood cells.

In data set [1] the test system is Staphylococcus aureus. As to the kind of experiment: Antibacterial activity against Staphylococcus aureus ATCC 29213 measured after 18 hrs by CLSI based broth microdilution method. It is filed as functional.
Data set [2] concerns Staphylococcus aureus. Briefly: Antibacterial activity against methicillin-resistant Staphylococcus aureus clinical isolate 17 measured after 18 hrs by CLSI based broth microdilution method. Type of data set: functional. (Broth dilution looks for growth in wells or tubes with falling amounts of substance.)
In data set [3] the test system is Staphylococcus aureus. As to the kind of experiment: Antibacterial activity against methicillin-resistant Staphylococcus aureus clinical isolate 13 measured after 18 hrs by CLSI based broth microdilution method. It is filed as functional.
Data set [4] concerns Staphylococcus aureus. Briefly: Antibacterial activity against methicillin-resistant Staphylococcus aureus clinical isolate 23 measured after 18 hrs by CLSI based broth microdilution method. It is filed as functional.
Data set [5] concerns Staphylococcus aureus. As to the kind of experiment: Antibacterial activity against methicillin-resistant Staphylococcus aureus clinical isolate 16 measured after 18 hrs by CLSI based broth microdilution method. Type of data set: functional.
Data set [6] has as its system Staphylococcus aureus. As to the kind of experiment: Antibacterial activity against methicillin-resistant Staphylococcus aureus clinical isolate 21 measured after 18 hrs by CLSI based broth microdilution method. It is filed as functional.
Data set [7] concerns Staphylococcus aureus. Briefly: Antibacterial activity against methicillin-resistant Staphylococcus aureus clinical isolate 11 measured after 18 hrs by CLSI based broth microdilution method. Type of data set: functional.
Data set [8] has as its system Staphylococcus aureus. Briefly: Antibacterial activity against methicillin-resistant Staphylococcus aureus clinical isolate 12 measured after 18 hrs by CLSI based broth microdilution method. It is filed as functional.
The subject of data set [9] is Staphylococcus aureus. As to the kind of experiment: Antibacterial activity against methicillin-resistant Staphylococcus aureus clinical isolate 20 measured after 18 hrs by CLSI based broth microdilution method. It is filed as functional.
In data set [10] the test system is Staphylococcus aureus. Briefly: Antibacterial activity against methicillin-resistant Staphylococcus aureus clinical isolate 22 measured after 18 hrs by CLSI based broth microdilution method. It is filed as functional.
The test system of data set [11] is Staphylococcus aureus. As to the kind of experiment: Antibacterial activity against methicillin-resistant Staphylococcus aureus clinical isolate 14 measured after 18 hrs by CLSI based broth microdilution method. Type of data set: functional.
In data set [12] the test system is Escherichia coli. Briefly: Antibacterial activity against Escherichia coli ATCC 25922 measured after 18 hrs by CLSI based broth microdilution method. It is filed as functional.
A short description of data set [13]: Hemolytic activity in sheep erythrocyte assessed as hemolysis incubated for 1 hr by absorbance based analysis. It is filed as toxicity, cell-based, Ovis aries. Conditions: sheep erythrocytes.
A short description of data set [14]: Selectivity index, ratio of HC50 for hemolytic activity in sheep erythrocyte assessed as hemolysis to MIC for antibacterial activity against Staphylococcus aureus ATCC 29213. Type of data set: toxicity. The note with it: sheep erythrocytes, read-out: Selectivity Index.

With `CC(C)=CCc1c(OCCCC[N+](C)(C)CC(=O)N(CC(C)C)CC(C)C)ccc2ccc(=O)oc12.[Br-]`, the minimum inhibitory concentration (MIC) in [1] worked out at 4 µg/mL; in data set [2], 1 µg/mL; in data set [3], 4 µg/mL; in data set [4], 2 µg/mL; in [5], 2 µg/mL; in [6] it was 2 µg/mL. The MIC in data set [7] was 2 µg/mL; in data set [8], 4 µg/mL; in [9] it was 2 µg/mL; in data set [10], 4 µg/mL; in [11], 2 µg/mL; in data set [12], 128 µg/mL. The HC50 at 1 h in data set [13] is > 1280 µg/mL. Further, the selectivity ratio in data set [14] was > 320.
On to `CC(C)=CCc1c(OCCC[N+](C)(C)CC(=O)N(CC(C)C)CC(C)C)ccc2ccc(=O)oc12.[Br-]`, for which the MIC in [1], in data set [2], in [3], in data set [4], in data set [5] and in data set [6] was 4 µg/mL throughout. The MIC in [7] was 4 µg/mL; in data set [8], 8 µg/mL; in [9], 4 µg/mL; in data set [10], 4 µg/mL; in [11] it was 4 µg/mL; in data set [12], 128 µg/mL. In addition, the HC50 at 1 h in [13] is > 1280 µg/mL. For the same molecule, the selectivity ratio in data set [14] was > 320.
As for `CCCCNC(=O)C[N+](C)(C)CCCCCOc1ccc2ccc(=O)oc2c1CC=C(C)C.[Br-]`, the MIC in data set [1], in data set [2], in data set [3], in data set [4], in data set [5] and in data set [6] was 8 µg/mL throughout. Besides, the MIC worked out at 8 µg/mL in data set [7]; 16 µg/mL in [8]; 8 µg/mL in data set [9]; 8 µg/mL in data set [10]; 8 µg/mL in [11]; 128 µg/mL in [12]. Moreover, the HC50 at 1 h in [13] turned out to be 798 µg/mL. Further, in data set [14], the selectivity ratio turned out to be 99.8.
As for `CCCNC(=O)C[N+](C)(C)CCCCCOc1ccc2ccc(=O)oc2c1CC=C(C)C.[Br-]`, the MIC in data set [1] is 32 µg/mL; in data set [2] it was 32 µg/mL; in data set [3], 32 µg/mL; in data set [4], 32 µg/mL; in data set [5] it was 16 µg/mL; in [6] it was 32 µg/mL. The MIC in data set [7] amounted to 32 µg/mL; in [8], 32 µg/mL; in data set [9], 32 µg/mL; in [10] it was 32 µg/mL; in data set [11], 16 µg/mL; in [12], 128 µg/mL. Moreover, the HC50 at 1 h in data set [13] came to 1140 µg/mL. Also, the selectivity ratio in [14] is 35.8.
As for `CC(C)=CCc1c(OCCCCC[N+](C)(C)CC(=O)N(CC(C)C)CC(C)C)ccc2ccc(=O)oc12.[Br-]`, the MIC in data set [1] was determined as 2 µg/mL; in data set [2] it was 1 µg/mL; in [3], 2 µg/mL; in data set [4], 1 µg/mL; in data set [5], 1 µg/mL; in data set [6] it was 1 µg/mL. The MIC in [7] is 1 µg/mL; in data set [8] it was 2 µg/mL; in data set [9], 1 µg/mL; in data set [10], 1 µg/mL; in [11] it was 1 µg/mL; in [12], 128 µg/mL. Moreover, the HC50 at 1 h in data set [13] worked out at 960 µg/mL. Also, in data set [14], the selectivity ratio was 480.
Take `CCN(CC)C(=O)C[N+](C)(C)CCCOc1ccc2ccc(=O)oc2c1CC=C(C)C.[Br-]`: the MIC in data set [1], in data set [2], in data set [3], in data set [4], in data set [5] and in data set [6] was 128 µg/mL throughout. The MIC in data set [7], in data set [8], in data set [9], in data set [10], in data set [11] and in data set [12] was 128 µg/mL throughout. In addition, in data set [13], the HC50 at 1 h is > 1280 µg/mL. Moreover, the selectivity ratio in data set [14] is > 10.
